Experimental data published in patent US11582970B2, “2-aminoimidazole-phenyl derivatives useful for controlling microbial growth” (NORTH CAROLINA STATE UNIVERSITY, priority 2017, dated 2023).

What was measured:
Assay type in all cases: cell-based
A. baumannii AB5075 = assay: MIC of carbapenems in presence and absence of 2-aminoimidazole compounds; details: Acinetobacter baumannii, no 2-AI compound (None), read-out: MIC of meropenem
Description: (§1) The minimal inhibitory concentration (MIC) values of imipenem (I); meropenem (M) and doripenem (D) in the presence and absence of 2-aminoimidazole compounds are provided in Table 1. The concentration of each compound used in μM in the MIC assay is shown in parentheses.

[1] = test system: A. baumannii ATCC BAA-1605; assay: as above; details: Acinetobacter baumannii, no 2-AI compound (None), read-out: MIC of meropenem
Description: as §1

[2] = test system: K. pneumoniae ATCC BAA-1705; assay: as above; details: Klebsiella pneumoniae, no 2-AI compound (None), read-out: MIC of meropenem
Description: as §1

[3] = test system: K. pneumoniae ATCC BAA-2146; assay: as above; details: Klebsiella pneumoniae, no 2-AI compound (None), read-out: MIC of meropenem
Description: as §1

A. baumannii (Ab) AR# 33 = assay: MIC of meropenem in combination with compound, CDC carbapenem resistant strain; details: Acinetobacter baumannii, no compound (None), read-out: Minimum Inhibitory Concentration of Meropenem
Experimental: (§2) EXAMPLE 2: Six compounds were assessed for their activity in combination with meropenem against carbapenem resistant strains of A. baumannii (Ab), K. pneumoniae (Kp), and E. coli acquired from the Center for Disease Control (CDC). AR #—assigned AR-BANK number from the CDC.

A. baumannii (Ab) AR# 35 = assay: as above; details: Acinetobacter baumannii, no compound (None), read-out: Minimum Inhibitory Concentration of Meropenem
Experimental: as §2

A. baumannii (Ab) AR# 36 = assay: as above; details: Acinetobacter baumannii, no compound (None), read-out: Minimum Inhibitory Concentration of Meropenem
Experimental: as §2

A. baumannii (Ab) AR# 37 = assay: as above; details: Acinetobacter baumannii, no compound (None), read-out: Minimum Inhibitory Concentration of Meropenem
Experimental: as §2

A. baumannii (Ab) AR# 45 = assay: as above; details: Acinetobacter baumannii, no compound (None), read-out: Minimum Inhibitory Concentration of Meropenem
Experimental: as §2

A. baumannii (Ab) AR# 52 = assay: as above; details: Acinetobacter baumannii, no compound (None), read-out: Minimum Inhibitory Concentration of Meropenem
Experimental: as §2

A. baumannii (Ab) AR# 56 = assay: as above; details: Acinetobacter baumannii, no compound (None), read-out: Minimum Inhibitory Concentration of Meropenem
Experimental: as §2

A. baumannii (Ab) AR# 63 = assay: as above; details: Acinetobacter baumannii, no compound (None), read-out: Minimum Inhibitory Concentration of Meropenem
Experimental: as §2

A. baumannii (Ab) AR# 70 = assay: as above; details: Acinetobacter baumannii, no compound (None), read-out: Minimum Inhibitory Concentration of Meropenem
Experimental: as §2

A. baumannii (Ab) AR# 83 = assay: as above; details: Acinetobacter baumannii, no compound (None), read-out: Minimum Inhibitory Concentration of Meropenem
Experimental: as §2

A. baumannii (Ab) AR# 88 = assay: as above; details: Acinetobacter baumannii, no compound (None), read-out: Minimum Inhibitory Concentration of Meropenem
Experimental: as §2

E. coli AR# 48 = assay: as above; details: Escherichia coli, no compound (None), read-out: Minimum Inhibitory Concentration of Meropenem
Experimental: as §2

E. coli AR# 55 = assay: as above; details: Escherichia coli, no compound (None), read-out: Minimum Inhibitory Concentration of Meropenem
Experimental: as §2

[4] = test system: K. pneumoniae (Kp) AR# 40; assay: as above; details: Klebsiella pneumoniae, no compound (None), read-out: Minimum Inhibitory Concentration of Meropenem
Experimental: as §2

[5] = test system: K. pneumoniae (Kp) AR# 41; assay: as above; details: Klebsiella pneumoniae, no compound (None), read-out: Minimum Inhibitory Concentration of Meropenem
Experimental: as §2

[6] = test system: K. pneumoniae (Kp) AR# 68; assay: as above; details: Klebsiella pneumoniae, no compound (None), read-out: Minimum Inhibitory Concentration of Meropenem
Experimental: as §2

[7] = test system: K. pneumoniae (Kp) AR# 98; assay: as above; details: Klebsiella pneumoniae, no compound (None), read-out: Minimum Inhibitory Concentration of Meropenem
Experimental: as §2

Work on `C[C@@H](O)[C@H]1C(=O)N2C(C(=O)O)=C(S[C@@H]3CN[C@H](C(=O)N(C)C)C3)[C@H](C)[C@H]12` [M, meropenem, reference compound] yielded an MIC (A. baumannii AB5075) of 32 mg/L, an MIC [1] of 32 mg/L and an MIC [2] of 64 mg/L. It also gave an MIC [3] of 256 mg/L, an MIC (A. baumannii (Ab) AR# 33) of 128 mg/L and an MIC (A. baumannii (Ab) AR# 35) of 128 mg/L. The MIC (A. baumannii (Ab) AR# 36) was 128 mg/L, the MIC (A. baumannii (Ab) AR# 37) was 256 mg/L and the MIC (A. baumannii (Ab) AR# 45) was 16 mg/L. The MIC (A. baumannii (Ab) AR# 52) was 8 mg/L, the MIC (A. baumannii (Ab) AR# 56) was 32 mg/L and the MIC (A. baumannii (Ab) AR# 63) was 128 mg/L. It also gave an MIC (A. baumannii (Ab) AR# 70) of 8 mg/L, an MIC (A. baumannii (Ab) AR# 83) of 256 mg/L and an MIC (A. baumannii (Ab) AR# 88) of 512 mg/L. The MIC (E. coli AR# 48) was 256 mg/L, the MIC (E. coli AR# 55) was 256 mg/L and the MIC [4] was 1020 mg/L. For the same compound, the MIC [5] was 64 mg/L, the MIC [6] was 512 mg/L and the MIC [7] was 128 mg/L.
